Reference: patent US20250188118A1, “LIQUID PHASE PEPTIDE SYNTHESIS METHODS” (AMGEN INC., priority 2023, published 2025)
Converted amounts (≈) assume the structure as drawn.

Assays:
[1] = in water at 23° C.; cited from earlier work
[2] = C18 tag solubility in screening solvents (slurry agitated overnight, supernatant assayed by calibrated HPLC); assay type: physicochemical; details: organic solvent or mixture, thermodynamic from solid, 20 °C
Method: Provided in this section is an analysis of the solubility of the C18 tag in various organic solvents. All starting materials are either commercially available from Sigma-Aldrich, Oakwood Chemicals, ChemPep Inc., CombiBlocks, or similar vendors, unless otherwise noted, or known in the art and may be synthesized by employing known procedures using ordinary skill.
(3,4,5-trioctadecoxyphenyl)methanol (200 mg) was measured out into a series of 1-dram vials. 1 mL of a screening solvent was added to its corresponding 1-dram vial. The slurry vials were placed on a shaker plate set to 20° C. and agitated overnight. Following agitation, the slurries were transferred to centrifuge tubes and the supernatant was isolated. 100 μL of the isolated supernatant was diluted in 10 mL THF to provides solutions for HPLC analysis using the Agilent 1290 Infinity II system with a Cortecs UPLC C8 1.6 μm 2, 1×150 mm column with a dilution factor of 100. A typical run through the HPLC instrument used a column temperature of 30° C.; an injection volume of 1 μL; a method length of 15 min; a flow rate of 0.3 mL/min; UV Detection: 220 nm; Mobile Phase A: 0.1% TFA in water; Mobile Phase B: 0.1% TFA in ACN; HPLC Gradient: 0 min—95:5 (A:B), 10 min—5:95 (A:B), 13 min—95:5 (A:B). The sample solutions were assayed on a calibrated LC system, and the corresponding C18 tag concentrations are reported below.

Row | Compound | miscibility in water [1] | solubility ([2]; solvent 2-Me-THF) | solubility ([2]; solvent CPME) | solubility ([2]; solvent Heptanes) | solubility ([2]; solvent MTBE) | solubility ([2]; solvent PhMe) | solubility ([2]; solvent THF) | solubility ([2]; solvent iPrOAc)
1 | CC1CCCO1 (centres unmarked) [Example 2-MeTHF, 2-methyltetrahydrofuran] | 14 g/100 g |  |  |  |  |  |  | 
2 | CCCCCCCCCCCCCCCCCCOc1cc(CO)cc(OCCCCCCCCCCCCCCCCCC)c1OCCCCCCCCCCCCCCCCCC [C18 Tag, (3,4,5-trioctadecoxyphenyl)methanol] |  | 172 mg/mL (≈ 189 mM) | 6.8 mg/mL (≈ 7.44 mM) | 1.63 mg/mL (≈ 1.78 mM) | 43.8 mg/mL (≈ 48 mM) | 57.8 mg/mL (≈ 63.3 mM) | ≥ 200 mg/mL | 1.81 mg/mL (≈ 1.98 mM)
